Assay results published in US20190137505A1 (THE ARIZONA BOARD OF REGENTS ON BEHALF OF THE UNIVERSITY OF …, priority 2015, published 2019).
“Also recorded” adds a separate entry of the source.

Biological target: T1, plasminogen (Homo sapiens, UniProt P00747)
T1 construct: Glu-Pg, uPA, tPA, fibrinogen, and chromogenic substrate for Pn were purchased from Molecular Innovations (Novi, Mich.); purchased Molecular Innovations (Novi, Mich.)
Assay: LC-MS/MS identification of sites of MG adduction on plasminogen in vitro (Tables 1 and 12)
Details: 500 μM MG, 24 hr
Procedure: 10 μg Pg was incubated with MG (50-500 μM) in tris-buffered saline (TBS) for 24 hours at 37° C. Following modification, sample volumes were increased to 150 μL and placed in 5 kDa spin filters to reduce volume and remove excess MG from solution.
MG-modified (500 μM) and unmodified Pg control (same incubation conditions without MG) were added to 250 μL amount of rehydration buffer (6M urea, 2M thiourea, 2% CHAPS, 100 mM DTT, 0.5% 3-10 ampholytes) and 5 μL of 3-10 ampholytes (Bio-Rad). Sample rehydrated with a 13 cm 4-7 pH isoelectric focusing strip (GE Healthcare) overnight. Following rehydration, strips were placed in a Bio-Rad PROTEAN IEF Cell focusing instrument. Strips were first focused for 1 hour at 500 V, and then run at a maximum of 8,000V until the strips have reached a final total of 45,000 V/hrs at which point gels are held at 500V until removed. Focused strips were removed, reduced with DTT, cysteines carbamidomethylated with iodoacetamide, and run on a 4-20% gradient Criterion gel for 55 minutes at 200V. Gels were stained for stained according to manufacturer instructions with Imperial Blue Protein (ThermoScientific, Rockford, Ill.) and destained immediately with water. Gel bands were excised and trypsin digested.
Coomassie stained gel-bands were excised and washed in ddH2O for 15 min. H2O was removed and bands were incubated in 50/50 acetonitrile (ACN):ddH2O for 15 min. ACN:ddH2O was removed and bands were incubated with ACN for 5 min. ACN was removed and gels were incubated with 100 mM ammonium bicarbonate (AMBIC). An equal volume of ACN was added to make 1:1 solution and was incubated for 15 min. The ACN/AMBIC solution was removed and remaining gel bands were dried by speed-vacuum. 10 mM dithiothreitol (DTT) was added to each band and incubated at 56° C. for 45 min. DTT was removed and sample brought to room temperature (RT). Iodoacetamide (55 mM) was added to each sample and incubated at RT for 30 min in dark. Iodoacetamide was removed and 100 mM AMBIC was added and bands were incubated for 5 min. An equal volume of ACN was added to make a 1:1 solution and incubated for 15 min. The ACN/AMBIC solution was removed and bands were dried by speed-vacuum. Bands were digested with trypsin (400 ng/band) in 50 mM AMBIC and incubated on ice for 45 min. Tryptic solution was removed and 50 mM AMBIC was added to each band and incubated overnight at 37° C. to complete digestion. Digests were acidified using 10% trifluoroacetic acid (TFA). Supernatant was saved. Band was covered with TFA:ACN (0.1%:60%) and sonicated at 20° C. water bath for 30 min. Supernatant was combined with previous fraction. Sampled were speed vacuumed to a final volume of 10 μL prior to LC-MS/MS analysis on an LTQ Orbitrap Velos mass spectrometer as described below.
LC-MS/MS analysis of in-gel trypsin digested-proteins (Shevchenko et al., 1996) was carried out using a LTQ Orbitrap Velos mass spectrometer (Thermo Fisher Scientific, San Jose, Calif.) equipped with an Advion nanomate ESI source (Advion, Ithaca, N.Y.), following ZipTip (Millipore, Billerica, Mass.) C18 sample clean-up according to the manufacturer's instructions. Peptides were eluted from a C18 precolumn (100-μm id×2 cm, Thermo Fisher Scientific) onto an analytical column (75-μm ID×10 cm, C18, Thermo Fisher Scientific) using a 5-20% gradient of solvent B (acetonitrile, 0.1% formic acid) over 65 minutes, followed by a 20-35% gradient of solvent B over 25 minutes, all at a flow rate of 400 nl/min. Solvent A consisted of water and 0.1% formic acid. Data dependent scanning was performed by the Xcalibur v 2.1.0 software (Andon et al., 2002) using a survey mass scan at 60,000 resolution in the Orbitrap analyzer scanning m/z 350-1600, followed by collision-induced dissociation (CID) tandem mass spectrometry (MS/MS) of the fourteen most intense ions in the linear ion trap analyzer. […]

T1 sequence (P00747 20-810 limits assumed): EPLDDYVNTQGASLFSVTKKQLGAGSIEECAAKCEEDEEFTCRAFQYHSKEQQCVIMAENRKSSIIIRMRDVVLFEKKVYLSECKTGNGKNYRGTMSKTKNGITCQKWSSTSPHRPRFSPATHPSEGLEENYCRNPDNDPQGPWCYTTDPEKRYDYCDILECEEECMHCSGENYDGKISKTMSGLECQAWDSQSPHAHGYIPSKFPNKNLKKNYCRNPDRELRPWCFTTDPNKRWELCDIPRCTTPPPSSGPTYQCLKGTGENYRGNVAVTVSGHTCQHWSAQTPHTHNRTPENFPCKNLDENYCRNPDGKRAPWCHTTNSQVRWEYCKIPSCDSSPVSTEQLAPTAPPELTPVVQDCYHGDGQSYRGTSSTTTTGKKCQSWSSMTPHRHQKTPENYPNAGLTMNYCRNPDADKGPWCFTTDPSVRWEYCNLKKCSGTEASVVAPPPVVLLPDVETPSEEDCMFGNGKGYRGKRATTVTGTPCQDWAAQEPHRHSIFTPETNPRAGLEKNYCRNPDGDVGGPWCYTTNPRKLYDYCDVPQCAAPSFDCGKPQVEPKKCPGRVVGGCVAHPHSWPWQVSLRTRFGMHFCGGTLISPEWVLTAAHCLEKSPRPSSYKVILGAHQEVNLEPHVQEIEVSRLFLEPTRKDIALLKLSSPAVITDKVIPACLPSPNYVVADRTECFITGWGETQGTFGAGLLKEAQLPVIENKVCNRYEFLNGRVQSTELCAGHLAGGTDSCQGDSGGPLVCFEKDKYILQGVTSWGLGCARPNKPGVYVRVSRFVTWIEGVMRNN

CC(=O)C=O [MG, Methylglyoxal]
Modifications (plasminogen site 43): MG-HI | Modifications (plasminogen site 61): MG-DH; also recorded: MG-HI | Modifications (plasminogen site 68): MG-DH; also recorded: MG-HI | Modifications (plasminogen site 70): MG-DH; also recorded: MG-HI | Modifications (plasminogen site 115): MG-HI | Modifications (plasminogen site 117): MG-HI; also recorded: MG-DH | Modifications (plasminogen site 134): MG-DH | Modifications (plasminogen site 220): MG-DH; also recorded: MG-HI | Modifications (plasminogen site 223): MG-HI | Modifications (plasminogen site 234): MG-DH | Modifications (plasminogen site 242): MG-DH; also recorded: MG-HI | Modifications (plasminogen site 265): MG-DH; also recorded: MG-HI | Modifications (plasminogen site 290): MG-HI | Modifications (plasminogen site 312): MG-DH; also recorded: MG-HI | Modifications (plasminogen site 324): MG-HI; also recorded: MG-DH | Modifications (plasminogen site 389): MG-HI; also recorded: MG-DH | Modifications (plasminogen site 474): MG-HI; also recorded: MG-DH | Modifications (plasminogen site 493): MG-HI; also recorded: MG-DH | Modifications (plasminogen site 504): MG-HI; also recorded: MG-DH | Modifications (plasminogen site 530): MG-HI; also recorded: MG-DH | Modifications (plasminogen site 561): MG-HI; also recorded: MG-DH | Modifications (plasminogen site 582): MG-HI; also recorded: MG-DH | Modifications (plasminogen site 644): MG-HI | Modifications (plasminogen site 712): MG-DH; also recorded: MG-HI | Modifications (plasminogen site 767): MG-HI; also recorded: MG-DH | Modifications (plasminogen site 779): MG-HI; also recorded: MG-DH | Modifications (plasminogen site 789): MG-HI; also recorded: MG-DH | Modifications (plasminogen sites 115/117 on one peptide, two adducts): MG-HI;; also recorded: MG-HI; also recorded: MG-DH;; also recorded: MG-DH | Modifications (plasminogen sites 220/223 on one peptide, two adducts): MG-HI;; also recorded: MG-DH; also recorded: MG-HI; also recorded: MG-DH; | Modifications (plasminogen sites 312/324 on one peptide, two adducts): MG-DH;; also recorded: MG-HI; also recorded: MG-DH; also recorded: MG-HI; | Modifications (plasminogen sites 474/493 on one peptide, two adducts): MG-DH;; also recorded: MG-HI; also recorded: MG-HI; | Modifications (plasminogen sites 489/504 on one peptide, two adducts): MG-HI;; also recorded: MG-DH | Modifications (plasminogen sites 779/789 on one peptide, two adducts): MG-HI;; also recorded: MG-DH; also recorded: MG-HI; also recorded: MG-DH; | Spectra Observed (site 43, MG-HI, C(+57)EEDEEFTC(+57)RAFQYHSK): 1 | Spectra Observed (site 61, MG-DH, EQQC(+57)VIMAENRK): 3 | Spectra Observed (site 61, MG-HI, EQQC(+57)VIMAENRK): 4 | Spectra Observed (site 68, MG-DH, SSIIIRMR): 2 | Spectra Observed (site 68, MG-HI, KSSIIIRMR): 1 | Spectra Observed (site 70, MG-DH, M(+16)RDVVLFEK): 2 | Spectra Observed (site 70, MG-DH, MRDVVLFEK): 7 | Spectra Observed (site 70, MG-DH, MRDVVLFEKK): 2 | Spectra Observed (site 70, MG-HI, M(+16)RDVVLFEK): 4 | Spectra Observed (site 70, MG-HI, MRDVVLFEK): 4 | Spectra Observed (site 70, MG-HI, MRDVVLFEKK): 4 | Spectra Observed (site 115, MG-HI, WSST SPHRPR): 4 | Spectra Observed (site 117, MG-DH, WSSTSPHRPRFSPATHPSEGLEENYC(+57)R): 9 | Spectra Observed (site 117, MG-HI, WSSTSPHRPRFSPATHPSEGLEENYC(+57)R): 9 | Spectra Observed (site 134, MG-DH, FSPATHPSEGLEENYCRNPDNDPQGPWC(+57)YTTDPEKR): 1 | Spectra Observed (site 220, MG-DH, NPDRELRPWC(+57)FTTDPNK): 1 | Spectra Observed (site 220, MG-DH, NPDRELRPWC(+57)FTTDPNKR): 6 | Spectra Observed (site 220, MG-HI, NPDRELRPWC(+57)FTTDPNK): 5 | Spectra Observed (site 223, MG-HI, ELRPWC(+57)FTTDPNKR): 4 | Spectra Observed (site 223, MG-HI, NPDRELRPWC(+57)FTTDPNKR): 11 | Spectra Observed (site 234, MG-DH, RWELC(+57)DIPR0): 2 | Spectra Observed (site 242, MG-DH, WELC(+57)DIPRC(+57)TTPPPSSGPTYQC(+57)LK): 6 | Spectra Observed (site 242, MG-HI, WELC(+57)DIPRC(+57)TTPPPSSGPTYQC(+57)LK): 3 | Spectra Observed (site 265, MG-DH, GTGENYRGNVAVTVSGHTC(+57)QHWSAQTPHTHNR): 7 | Spectra Observed (site 265, MG-HI, GTGENYRGNVAVTVSGHTC(+57)QHWSAQTPHTHNR): 5 | Spectra Observed (site 290, MG-HI, GNVAVTVSGHTC(+57)QHWSAQTPHTHNRTPENFPC(+57)K, MH+ 3809.751): 12 | Spectra Observed (site 290, MG-HI, GNVAVTVSGHTC(+57)QHWSAQTPHTHNRTPENFPC(+57)K, MH+ 3827.75): 4
